{"source": "paper PMC7913927", "about": "“Leishmanicidal Activity of Betulin Derivatives in Leishmania amazonensis; Effect on Plasma and Mitochondrial Membrane Potential, and Macrophage Nitric Oxide and Superoxide Production” (Microorganisms, 2021)", "key": {"[1]": {"tested_on": "L. (L.) amazonensis LTB0016, VE98MR and VE2000MM promastigotes", "experiment": "Plasma membrane potential (ΔΨp), bisoxonol fluorescence", "assay_type": "cell-based, Leishmania amazonensis", "settings": "promastigotes of LTB0016, VE98MR, VE2000MM; 15 min; 18: 1 and 2 µM; vs untreated", "method": "To evaluate the plasma membrane potential (ΔΨp), the fluorescent compound, bisoxonol, bis[1,3-diethylthiobarbituric acid] trimethine oxonol, was used, as well as a method optimized by Padrón-Nieves et al.. Initially, calibration curves for each strain, using increasing concentrations of KCl (0.5 to 75 mM), were performed in the late log growth phase Leishmania promastigotes in the presence of the potassium ionophore valinomycin. By this procedure, fluorescence values could be transformed into millivolts (mV), applying the Nernst equation, ΔΨp = −59.4 log(120/[KCl]). […] After 10 min of incubation in the dark, fluorescence was measured in a Victor^2 Wallac spectrofluorometer (Perkin Elmer, Turku, Finland), using the appropriate wavelengths (ex: 540 nm/em: 580 nm). […] Once the corresponding calibration curve for each strain was obtained, the effect of compounds on the ΔΨp was evaluated. […] After 10 min of incubation in the dark, fluorescence was measured, using the appropriate wavelengths (ex: 540 nm/em: 580 nm). […] To transform the fluorescence values in millivolts (mV), calibration curves were prepared using increasing concentrations of KCl (0.5, 1.15, 2.5, 5, 10, 20, 40, and 75 mM). […]"}, "[2]": {"tested_on": "L. (V.) braziliensis promastigotes, reference strain MHOM/BR/LTB300", "settings": "reference strain MHOM/BR/LTB300; cited from earlier work"}, "[3]": {"tested_on": "L. (L.) donovani axenic amastigotes", "settings": "cited from earlier work"}, "[4]": {"tested_on": "J774.1 macrophages, healthy or infected with LTB0016, VE98MR or VE2000MM", "experiment": "Superoxide (O2−) production, ferricytochrome c reduction", "assay_type": "cell-based, murine", "settings": "LTB0016- and VE98MR-infected macrophages; 48 h; 18: 1 and 2 µM", "method": "The intracellular oxidative burst was evaluated by the production of the superoxide anion O2^−, using the method of reduction of ferricytochrome c, previously described. Macrophages from preceding experiments were used after removing the supernatant; the cells pretreated with compounds or AmB as positive control of the experiment were resuspended in 100 µL of Hanks saline (HBSS: 137 mM NaCl, 5.4 mM KCl, 1 mM MgSO4⋅7H2O, 1.3 mM CaCl2⋅H2O, 0.3 mM Na2HPO4, 0.44 mM KH2PO4, 4.2 mM NaHCO3, 5 mM glucose, pH 7.2) and incubated for 1 h in the presence of 2 mg mL^−1 (160 µM) of cytochrome c type III, at 37 °C and 5% CO2. The supernatant was saved to measure the change in optical density at 550 nm. Three independent experiments were performed in duplicate. The superoxide anion concentration was calculated using the reduced molar extinction coefficient of cytochrome c, 21 mM^−1 cm^−1. Therefore, [O2^−] = (ΔOD/6.3) × 100, where ΔOD is the variation of the optical density (reading-blank), and the result obtained corresponds to the concentration of superoxide anion expressed in nanomoles of O2^− released/2 × 10^5 cells. MLF (5 µM) and amphotericin-B (AmB, 0.1 µM), known to induce NO production in macrophages, were included as controls."}, "[5]": {"tested_on": "J774.1 macrophages, healthy or infected with LTB0016, VE98MR or VE2000MM", "experiment": "Nitric oxide (NO) production, Griess reaction", "assay_type": "cell-based, murine", "settings": "non-infected and infected macrophages; 48 h; 18: 1 and 2 µM; 22: 2 and 4 µM", "method": "Following a previously described procedure, infected and uninfected macrophage cultures were treated with test compounds to analyze their effect in Leishmania host cell nitric oxide (NO) production. J774.1 macrophages, at the third day of growth, were collected and seeded in flat-bottom 96-well culture plates, at a density of 1 × 10^6 cells mL^−1 (2 × 10^5 macrophages/well), in 200 µL of RPMIc. The plates were incubated for 2 h; once the supernatant was discarded, the medium was replaced with 200 µL of RPMIc mixed with infectious promastigotes in the stationary phase of growth (1 × 10^7 parasites/mL, 2 × 10^6 parasites/well), so that the ratio macrophage: parasites was 1:10 [41]. The plates were then incubated for 4 h, the medium was replaced with fresh RPMIc and the test compounds were applied, according to the different treatment groups. The plates were kept in incubation for 48 h, at 37 °C and 5% CO2.\nFrom the culture supernatants, 50-µL aliquots were recovered and transferred to a new 96-well plate to perform the Griess reaction, 50 µL of Solution 1 [1% sulfanilamide dissolved in 2.5% phosphoric acid] was added, incubated for 5 min at RT and in the dark. […] Finally, the colorimetric reading was performed at 550 nm. […] Levels of NO2^− (expressed as µM of NO2^−) were calculated from a calibration curve constructed with increasing concentrations of sodium nitrite (NaNO2). […]"}}, "note": "“Also recorded” adds a separate entry of the source.", "data": [{"smiles": "C=C(C)C1CCC2(C=NO)CCC3(C)C(CCC4C5(C)CCC(=NO)C(C)(C)C5CCC43C)C12", "note": "(centres unmarked) [Compound 18]", "values": [{"measurement": "Effect on plasma membrane potential (ΔΨp)", "setting": "[1]", "value": "significantly depolarized; also recorded: significantly depolarize the ΔΨp in all evaluated strains; also recorded: the collapse of the plasma membrane potential (ΔΨp) in a concentration-dependent way"}, {"measurement": "active concentration in L. (L.) braziliensis", "setting": "[2]", "value": "less than 10 µM"}, {"measurement": "GI50", "setting": "[3]", "value": 22.8, "unit": "µM"}, {"measurement": "Superoxide production, infected macrophages", "setting": "[4]", "value": "induced superoxide production in infected macrophages; also recorded: inducing an oxidative burst and thus increasing O2^− production"}, {"measurement": "Nitric oxide (NO) production by macrophages", "setting": "[5]", "value": "neither 18 nor 22 induced nitric oxide production in infected macrophages; also recorded: not capable of inducing NO production in any of the strains tested; also recorded: not capable of inducing NO production for any of the strains tested"}]}]}
